Test results reported in patent US10654834B2 (Venenum Biodesign, LLC, priority 2016, dated 2020).

How the values were obtained:
blood glucose = assay: Oral glucose tolerance test (OGTT) in C57BL/6NTac mice; assay type: in vivo, mouse
Method: Oral Glucose Tolerance Test (OGTT)
Compounds of the present invention were tested to determine if they could decrease blood glucose levels in mice after glucose administration (i.e., effective in glycemic control). In this study, we orally administered a standard dose of glucose to mice and measured glucose levels in circulating blood at several defined time points after the glucose administration.
8-12 week old male C57BL/6NTac (Taconic) mice were fasted overnight. On the morning of the experiment, the mice were weighed and divided into experimental groups (n=8) assigned by randomizing mice based on baseline blood glucose levels. Following group assignments, mice were dosed with 3 mg/kg sitagliptin or PBS as vehicle control via oral gavage (5 mL/kg) exactly 1 hour before oral gavage dosing of compound (30 mg/kg) or vehicle (0.5% carboxymethylcellulose (medium viscosity)+0.25% Tween −80) at a volume of 10 mL/kg. Time zero blood glucose levels were measured 4 hours after compound or vehicle dosing. Immediately following time zero blood glucose level measurement, mice were gavaged with 2 g/kg of glucose. […] AUC were calculated and data analyzed using one-way ANOVA followed by Dunnett's post-test in GraphPad Prism (FIG. 2). […]

GLP-1 = GLP-1 measurement at end of OGTT in C57BL/6NTac mice; assay type: in vivo, mouse; settings: for blood GLP-1 level after OGTT, combination with sitagliptin: 30 mg/kg + sitagliptin 3 mg/kg p.o.
Method: Immediately after the last blood glucose measurement (i.e., 120 minutes after the glucose administration), the blood was collected via cardiac puncture for GLP-1 measurements. The collected blood (200-250 μL) was placed in an EDTA K^2+ tube containing 5 μL of 40 mg/mL aprotinin (Sigma A1153) and 1 μL of 10 mM sitagliptin (Sigma S8576) and plasma was separated by centrifugation. Plasma samples were stored at −20° C. until analysis. The active form of GLP-1 [GLP-1 (7-36) amide] was analyzed using Meso Scale Discovery System according to the manufacturer's directions (item number K150HYC). […] A synergy between the Compound 56 and sitagliptin is also observed (FIG. 3). Values of p<0.01 and <0.001 are considered statistically significant.
FIG. 4 depicts blood glucose measurements at 15, 30, 60, 90, and 120 min following glucose gavage. FIG. 5 depicts AUC data after glucose gavage. FIG. 6 depicts the blood GLP-1 levels comparing mice treated with a DPP-4 inhibitor (i.e., sitagliptin) to mice treated with Compound 268+a DPP-4 inhibitor (i.e., sitagliptin).

[1] = Bile weight after chronic dosing (5 days) in DIO mice; assay type: in vivo, mouse; settings: 30 mg/kg + sitagliptin 10 mg/kg, after second and tenth treatment, versus sitagliptin alone
Method: Bile Weight after Chronic Dosing of Compounds
In this study, chronic dosing of compounds of the present invention was examined to determine if they lead to an increase in bile weight.
FIG. 13 depicts the time course of bile weight changes over time (i.e., 0, 3, 6, 9, and 12 hours) after the second and the tenth treatment with Compound 268 using the protocol in Example 87.

mouse TGR5 receptor = molecular target: T1, mouse TGR5 receptor (Mus musculus, UniProt Q80SS6); assay: Mouse TGR5 luminescent cAMP production assay (HEK293-EBNA cells, DiscoveRx cAMP XS+ kit); assay type: cell-based; settings: HEK293-EBNA cells overexpressing mouse TGR5, luminescent cAMP assay; read-out: Mouse TGR5 Lum. cAMP Activity (EC50)
T1 construct: host or cells: HEK293-EBNA (293 c18, ATCC CRL10852)
T1 sequence (Q80SS6 1-329): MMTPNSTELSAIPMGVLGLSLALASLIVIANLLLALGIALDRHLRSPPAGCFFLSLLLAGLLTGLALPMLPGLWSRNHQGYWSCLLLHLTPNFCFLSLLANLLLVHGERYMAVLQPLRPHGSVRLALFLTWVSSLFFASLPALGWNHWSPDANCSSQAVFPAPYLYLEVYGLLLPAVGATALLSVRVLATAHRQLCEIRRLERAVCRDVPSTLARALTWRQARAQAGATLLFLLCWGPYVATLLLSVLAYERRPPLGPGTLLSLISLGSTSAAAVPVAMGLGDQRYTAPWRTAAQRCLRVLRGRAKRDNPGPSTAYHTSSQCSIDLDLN
In short: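 HEK293-EBNA cells stably expressing mouse TGR5, resuspended in serum-free DMEM with 500 μM IBMX, were premixed 20 min with cAMP antibody, then exposed to half-log compound dilutions for 1 h at room temperature. cAMP was read by luminescent enzyme-fragment complementation (cAMP XS+) after overnight incubation; EC50 derived.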

SMILES	EC50 (mouse TGR5 receptor) [µM]	also measured
N#Cc1ccc(CCNC(=O)[C@@H]2CCN2c2cc(N3CCC(CCNC(=O)NCCC(=O)O)CC3)nc(C(F)(F)F)n2)cc1 [Compound 268, (S)-3-(3-(2-(1-(6-(2-((4-cyanophenethyl)carbamoyl)azetidin-1-yl)-2-(trifluoromethyl)pyrimidin-4-yl)piperidin-4-yl)ethyl)ureido)propanoic acid]		blood glucose levels in OGTT, combination with sitagliptin (blood glucose; 30 mg/kg + sitagliptin 3 mg/kg p.o. versus sitagliptin alone): effectively reduced blood glucose levels throughout the time period measured; blood GLP-1 level after OGTT, combination with sitagliptin (GLP-1): induced GLP-1 production; bile weight after chronic dosing [1]: no significant changes in bile weight
COCC1CCN(c2cc(N3CCC[C@H]3C(=O)NCCc3ccc(C#N)cc3)nc(C(F)(F)F)n2)CC1 [Compound 24]	< 0.1	
N#Cc1ccc(CCNC(=O)[C@@H]2CCCN2c2cc(N3CCC(CCO)CC3)nc(C(F)(F)F)n2)cc1 [Compound 22]	< 0.1	
N#Cc1ccc(CCNC(=O)[C@@H]2CCCN(c3cc(N4CCC(CO)CC4)nc(C(F)(F)F)n3)C2)cc1 [Compound 308, (R)—N-(4-cyanophenethyl)-1-(6-(4-(hydroxymethyl)piperidin-1-yl)-2-(trifluoromethyl)pyrimidin-4-yl)piperidine-3-carboxamide]	< 0.1	
N#Cc1ccc(CCNC(=O)[C@@H]2CCN2c2cc(N3CCC(CO)CC3)nc(C(F)(F)F)n2)cc1 [Compound 219, (S)—N-(4-cyanophenethyl)-1-(6-(4-(hydroxymethyl)piperidin-1-yl)-2-(trifluoromethyl)pyrimidin-4-yl)azetidine-2-carboxamide]	< 0.1	
N#Cc1ccc(CCNC(=O)[C@@H]2CCCN2c2cc(N3CCC(CCN)CC3)nc(C(F)(F)F)n2)cc1 [Compound 50, (S)-1-(6-(4-(2-aminoethyl)piperidin-1-yl)-2-(trifluoromethyl)pyrimidin-4-yl)-N-(4-cyanophenethyl)pyrrolidine-2-carboxamide]	< 0.1	
N#Cc1ccc(CCNC(=O)[C@@H]2CCN2c2cc(N3CCC(CCO)CC3)nc(C(F)(F)F)n2)cc1 [Compound 223, (S)-N-(4-cyanophenethyl)-1-(6-(4-(2-hydroxyethyl)piperidin-1-yl)-2-(trifluoromethyl)pyrimidin-4-yl)azetidine-2-carboxamide]	< 0.1	
N#Cc1ccc(CCNC(=O)[C@@H]2CCCN2c2cc(N3CCC(CCC(=O)NCCS(=O)(=O)O)CC3)nc(C(F)(F)F)n2)cc1 [Compound 56, (S)-2-(3-(1-(6-(2-((4-cyanophenethyl)carbamoyl)pyrrolidin-1-yl)-2-(trifluoromethyl)pyrimidin-4-yl)piperidin-4-yl)propanamido)ethanesulfonic acid]		blood glucose levels in OGTT (blood glucose; 30 mg/kg p.o. 4 h before 2 g/kg glucose, 15-120 min): effectively reduced blood glucose levels throughout the time period measured; blood GLP-1 level after OGTT, combination with sitagliptin (GLP-1): synergy; blood GLP-1 level after OGTT (GLP-1; 30 mg/kg p.o., 120 min after glucose): increased GLP-1 level
